Patent US20220144823A1, “PYRAZOLOPYRIDINE DERIVATIVES AS INHIBITORS OF PASK” (Galapagos NV, priority 2019, published 2022)

Tested on: diabetic non human primates (NHPs) under a high-calorie diet (HCD)
Assay: Diabetic monkey model;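 further: male obese diabetic cynomolgus monkeys fed a high-fat, high-fructose diet, randomized into 4 groups, dosed with test compound for 8 weeks, then a 4-week washout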
Description: The aim of this assay is to determine the effect of a test compound on lipid metabolism and glucose handling in diabetic non human primates (NHPs) under a high-calorie diet (HCD) consisting of high-fat and high-fructose.
Male obese diabetic cynomolgus monkeys were selected based on their body weights, glucose, insulin levels, and blood lipid parameters. The inclusion criteria were the following: age ≤22 years; fasted plasma glucose between 120 and 300 mg/dL; triglycerides >125 mg/dL, and insulin >75 mIU/mL.
The animals are maintained at 20-23° C. and 40-70% humidity on a 12 h light/dark cycle (7 AM-7 PM). Water is provided ad libitum and the animals are fed twice daily with the high-calorie diet (HCD) enriched with seasonal fruits or vegetables.
After the baseline period, animals were randomized into 4 groups according to body weight, as well as their blood glucose and lipid parameters.
The following parameters were measured once per week during the 8 weeks of treatment and also during the 4 weeks of washout: • body weight • food consumption • blood chemistry (fasted blood glucose, plasma triglycerides, plasma total cholesterol, low density lipoproteins (LDL), and high density lipoproteins (HDL))
Oral glucose tolerance was measured in fasted animals before treatment initiation (baseline), at the end of the treatment period (week 8), and after 4 weeks of washout (week 12).

Cc1nn(C(C)C)c(C)c1-c1cnn2ccc(-c3cc(C(=O)O)co3)cc12 [Cpd 18, 5-[3-(1-isopropyl-3,5-dimethyl-pyrazol-4-yl)pyrazolo[1,5-a]pyridin-5-yl]furan-3-carboxylic acid]
HDL change (% change from baseline) (Group 2, week 1, treatment): 14.1%
LDL change (% change from baseline) (Group 2, week 1, treatment): 52.8%
Total cholesterol change (% change from baseline) (Group 2, week 1, treatment): 48.2 % change from baseline
Triglyceride change (% change from baseline) (Group 2, week 1, treatment): −33.3 % change from baseline
HDL change (% change from baseline) (Group 2, week 2, treatment): 8.4%
LDL change (% change from baseline) (Group 2, week 2, treatment): 38.3%
Total cholesterol change (% change from baseline) (Group 2, week 2, treatment): 33.8 % change from baseline
Triglyceride change (% change from baseline) (Group 2, week 2, treatment): −31.2 % change from baseline
HDL change (% change from baseline) (Group 2, week 3, treatment): 6.2%
LDL change (% change from baseline) (Group 2, week 3, treatment): 16.6%
Total cholesterol change (% change from baseline) (Group 2, week 3, treatment): 18.6 % change from baseline
Triglyceride change (% change from baseline) (Group 2, week 3, treatment): −36.7 % change from baseline
HDL change (% change from baseline) (Group 2, week 4, treatment): −4.3%
LDL change (% change from baseline) (Group 2, week 4, treatment): 31.0%
Total cholesterol change (% change from baseline) (Group 2, week 4, treatment): 28.0 % change from baseline
Triglyceride change (% change from baseline) (Group 2, week 4, treatment): −44.2 % change from baseline
HDL change (% change from baseline) (Group 2, week 5, treatment): 4.2%
LDL change (% change from baseline) (Group 2, week 5, treatment): 5.1%
Total cholesterol change (% change from baseline) (Group 2, week 5, treatment): 3.2 % change from baseline
Triglyceride change (% change from baseline) (Group 2, week 5, treatment): −62.6 % change from baseline
HDL change (% change from baseline) (Group 2, week 6, treatment): 11.7%
LDL change (% change from baseline) (Group 2, week 6, treatment): −10.5%
Total cholesterol change (% change from baseline) (Group 2, week 6, treatment): −6.7 % change from baseline
Triglyceride change (% change from baseline) (Group 2, week 6, treatment): −59.6 % change from baseline
HDL change (% change from baseline) (Group 2, week 7, treatment): 13.0%
LDL change (% change from baseline) (Group 2, week 7, treatment): −17.2%
Total cholesterol change (% change from baseline) (Group 2, week 7, treatment): −12.0 % change from baseline
Triglyceride change (% change from baseline) (Group 2, week 7, treatment): −55.9 % change from baseline
HDL change (% change from baseline) (Group 2, week 8, treatment): 12.4%
LDL change (% change from baseline) (Group 2, week 8, treatment): −10.5%
Total cholesterol change (% change from baseline) (Group 2, week 8, treatment): −5.1 % change from baseline
Triglyceride change (% change from baseline) (Group 2, week 8, treatment): −39.3 % change from baseline
HDL change (% change from baseline) (Group 2, week 9, washout): 13.5%
LDL change (% change from baseline) (Group 2, week 9, washout): −1.6%
Total cholesterol change (% change from baseline) (Group 2, week 9, washout): 5.8 % change from baseline
Triglyceride change (% change from baseline) (Group 2, week 9, washout): −33.4 % change from baseline
HDL change (% change from baseline) (Group 2, week 10, washout): 22.7%
LDL change (% change from baseline) (Group 2, week 10, washout): 38.6%
Total cholesterol change (% change from baseline) (Group 2, week 10, washout): 42.4 % change from baseline
Triglyceride change (% change from baseline) (Group 2, week 10, washout): 9.8 % change from baseline
HDL change (% change from baseline) (Group 2, week 11, washout): 21.2%
LDL change (% change from baseline) (Group 2, week 11, washout): 81.5%
Total cholesterol change (% change from baseline) (Group 2, week 11, washout): 83.8 % change from baseline
Triglyceride change (% change from baseline) (Group 2, week 11, washout): 49.7 % change from baseline
HDL change (% change from baseline) (Group 2, week 12, washout): 24.9%
LDL change (% change from baseline) (Group 2, week 12, washout): 118.6%
Total cholesterol change (% change from baseline) (Group 2, week 12, washout): 115.8 % change from baseline
Triglyceride change (% change from baseline) (Group 2, week 12, washout): 32.2 % change from baseline
HDL change (% change from baseline) (Group 3, week 1, treatment): 18.6%
LDL change (% change from baseline) (Group 3, week 1, treatment): 60.5%
Total cholesterol change (% change from baseline) (Group 3, week 1, treatment): 46.1 % change from baseline
Triglyceride change (% change from baseline) (Group 3, week 1, treatment): −20.2 % change from baseline
HDL change (% change from baseline) (Group 3, week 2, treatment): 3.7%
LDL change (% change from baseline) (Group 3, week 2, treatment): 58.3%
Total cholesterol change (% change from baseline) (Group 3, week 2, treatment): 41.5 % change from baseline
Triglyceride change (% change from baseline) (Group 3, week 2, treatment): −56.1 % change from baseline
HDL change (% change from baseline) (Group 3, week 3, treatment): 7.7%
LDL change (% change from baseline) (Group 3, week 3, treatment): 35.1%
Total cholesterol change (% change from baseline) (Group 3, week 3, treatment): 22.3 % change from baseline
Triglyceride change (% change from baseline) (Group 3, week 3, treatment): −41.6 % change from baseline
HDL change (% change from baseline) (Group 3, week 4, treatment): −12.0%
LDL change (% change from baseline) (Group 3, week 4, treatment): −28.7%
Total cholesterol change (% change from baseline) (Group 3, week 4, treatment): −22.3 % change from baseline
Triglyceride change (% change from baseline) (Group 3, week 4, treatment): −44.5 % change from baseline
HDL change (% change from baseline) (Group 3, week 5, treatment): 1.0%
LDL change (% change from baseline) (Group 3, week 5, treatment): −27.5%
Total cholesterol change (% change from baseline) (Group 3, week 5, treatment): −21.0 % change from baseline
Triglyceride change (% change from baseline) (Group 3, week 5, treatment): −44.4 % change from baseline
HDL change (% change from baseline) (Group 3, week 6, treatment): 9.5%
LDL change (% change from baseline) (Group 3, week 6, treatment): −33.2%
Total cholesterol change (% change from baseline) (Group 3, week 6, treatment): −26.5 % change from baseline
Triglyceride change (% change from baseline) (Group 3, week 6, treatment): −46.2 % change from baseline
HDL change (% change from baseline) (Group 3, week 7, treatment): 8.3%
LDL change (% change from baseline) (Group 3, week 7, treatment): −39.4%
Total cholesterol change (% change from baseline) (Group 3, week 7, treatment): −30.5 % change from baseline
Triglyceride change (% change from baseline) (Group 3, week 7, treatment): −35.0 % change from baseline
HDL change (% change from baseline) (Group 3, week 8, treatment): −0.9%
LDL change (% change from baseline) (Group 3, week 8, treatment): −27.9%
Total cholesterol change (% change from baseline) (Group 3, week 8, treatment): −20.4 % change from baseline
Triglyceride change (% change from baseline) (Group 3, week 8, treatment): −37.4 % change from baseline
HDL change (% change from baseline) (Group 3, week 9, washout): 1.5%
LDL change (% change from baseline) (Group 3, week 9, washout): −41.8%
